{"source": "patent US20100267561A1", "about": "“HERBICIDAL PYRIDAZINONE DERIVATIVES” (priority 2007, published 2010)", "format_in_all_cases": "in vivo", "key": {"[1]": {"test_system": "blackgrass (Alopecurus myosuroides)", "test": "Test C pre-/postemergence plant response", "conditions": "Preemergence", "outline": "(§1)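 Seeds are planted and sprayed preemergence, while established plants at the 1- to 4-leaf stage (2 to 18 cm) receive postemergence sprays of the same surfactant-containing, non-phytotoxic solvent formulation. After 15 to 25 days under controlled conditions, injury is scored visually from 0 (no effect) to 100 (complete control).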"}, "[2]": {"test_system": "canarygrass (Phalaris minor)", "test": "Test C pre-/postemergence plant response", "conditions": "Preemergence", "outline": "as §1"}, "[3]": {"test_system": "pigweed (Amaranthus retroflexus)", "test": "Test C pre-/postemergence plant response", "conditions": "Preemergence", "outline": "as §1"}, "[4]": {"test_system": "wild mustard (Sinapis arvensis)", "test": "Test C pre-/postemergence plant response", "conditions": "Preemergence", "outline": "as §1"}, "[5]": {"test_system": "winter wheat (Triticum aestivum)", "test": "Test C pre-/postemergence plant response", "conditions": "Preemergence", "outline": "as §1"}, "[6]": {"test_system": "windgrass (Apera spica-venti)", "test": "Test C pre-/postemergence plant response", "conditions": "Preemergence", "outline": "as §1"}, "[7]": {"test_system": "wild oat (Avena fatua)", "test": "Test C pre-/postemergence plant response", "conditions": "Preemergence", "outline": "as §1"}, "[8]": {"test_system": "annual bluegrass (Poa annua)", "test": "Test C pre-/postemergence plant response", "conditions": "Preemergence", "outline": "as §1"}, "[9]": {"test_system": "spring barley (Hordeum vulgare)", "test": "Test C pre-/postemergence plant response", "conditions": "Preemergence", "outline": "as §1"}, "[10]": {"test_system": "downy bromegrass (Bromus tectorum)", "test": "Test C pre-/postemergence plant response", "conditions": "Preemergence", "outline": "as §1"}, "[11]": {"test_system": "green foxtail (Setaria viridis)", "test": "Test C pre-/postemergence plant response", "conditions": "Preemergence", "outline": "as §1"}, "[12]": {"test_system": "surinam grass (Brachiaria decumbens)", "test": "Test B pre-/postemergence plant response", "conditions": "for Surinam Grass plant response rating: 8 g ai/ha", "outline": "(§2)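 Preemergence and postemergence (plants 2-18 cm, 1- to 4-leaf stage) applications used test chemicals in a non-phytotoxic solvent with surfactant. Plants were held in a greenhouse 13 to 15 days, then rated visually against controls on a 0-100 scale (0 no effect, 100 complete control).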"}, "[13]": {"test_system": "johnsongrass (Sorghum halepense)", "test": "Test B pre-/postemergence plant response", "conditions": "for Johnsongrass plant response rating: 8 g ai/ha", "outline": "as §2"}, "[14]": {"conditions": "8 g ai/ha, scale 0 to 100 (0 no effect, 100 complete control)"}, "[15]": {"conditions": "16 g ai/ha, scale 0 to 100 (0 no effect, 100 complete control)"}, "[16]": {"conditions": "31 g ai/ha, scale 0 to 100 (0 no effect, 100 complete control)"}, "[17]": {"conditions": "62 g ai/ha, scale 0 to 100, 0 no effect, 100 complete control"}, "[18]": {"conditions": "Postemergence, 16 g ai/ha, scale 0 to 100"}, "[19]": {"conditions": "Postemergence, 62 g ai/ha, scale 0 to 100, 0 no effect, 100 complete control"}, "[20]": {"conditions": "Preemergence, 16 g ai/ha, scale 0 to 100 (0 no effect, 100 complete control)"}, "[21]": {"conditions": "Preemergence, 31 g ai/ha, 0 to 100 scale, 0 no effect, 100 complete control"}, "[22]": {"conditions": "Preemergence, 62 g ai/ha, scale 0 to 100"}}, "data": [{"smiles": "Cc1cc(-c2ccc(Cl)cc2)nn1-c1c(OC(=O)C(C)C)cnn(C)c1=O", "note": "[Compound 34]", "values": [{"measurement": "Plant response rating, Blackgrass", "setting": "[1]; [14]", "result": 0}, {"measurement": "Plant response rating, Blackgrass", "setting": "[1]; [15]", "result": 20}, {"measurement": "Plant response rating, Blackgrass", "setting": "[1]; [16]", "result": 75}, {"measurement": "Plant response rating, Blackgrass", "setting": "[1]; [17]", "result": 85}, {"measurement": "Plant response rating, Canarygrass", "setting": "[2]; [14]", "result": 0}, {"measurement": "Plant response rating, Canarygrass", "setting": "[2]; [15]", "result": 20}, {"measurement": "Plant response rating, Canarygrass", "setting": "[2]; [16]", "result": 65}, {"measurement": "Plant response rating, Canarygrass", "setting": "[2]; [17]", "result": 100}, {"measurement": "Plant response rating, Pigweed", "setting": "[3]; [14]", "result": 0}, {"measurement": "Plant response rating, Pigweed", "setting": "[3]; [15]", "result": 0}, {"measurement": "Plant response rating, Pigweed", "setting": "[3]; [16]", "result": 0}, {"measurement": "Plant response rating, Pigweed", "setting": "[3]; [17]", "result": 0}, {"measurement": "Plant response rating, Mustard, Wild", "setting": "[4]; [15]", "result": 0}, {"measurement": "Plant response rating, Mustard, Wild", "setting": "[4]; [16]", "result": 0}, {"measurement": "Plant response rating, Mustard, Wild", "setting": "[4]; [17]", "result": 0}, {"measurement": "Plant response rating, Wheat, Winter", "setting": "[5]; [14]", "result": 0}, {"measurement": "Plant response rating, Wheat, Winter", "setting": "[5]; [15]", "result": 10}, {"measurement": "Plant response rating, Wheat, Winter", "setting": "[5]; [16]", "result": 25}, {"measurement": "Plant response rating, Wheat, Winter", "setting": "[5]; [17]", "result": 60}, {"measurement": "Plant response rating, Windgrass", "setting": "[6]; [14]", "result": 0}, {"measurement": "Plant response rating, Windgrass", "setting": "[6]; [15]", "result": 0}, {"measurement": "Plant response rating, Windgrass", "setting": "[6]; [16]", "result": 20}, {"measurement": "Plant response rating, Windgrass", "setting": "[6]; [17]", "result": 60}, {"measurement": "Plant response rating, Oat, Wild", "setting": "[7]; [14]", "result": 0}, {"measurement": "Plant response rating, Oat, Wild", "setting": "[7]; [15]", "result": 0}, {"measurement": "Plant response rating, Oat, Wild", "setting": "[7]; [16]", "result": 70}, {"measurement": "Plant response rating, Oat, Wild", "setting": "[7]; [17]", "result": 75}, {"measurement": "Plant response rating, Bluegrass", "setting": "[8]; [14]", "result": 0}, {"measurement": "Plant response rating, Bluegrass", "setting": "[8]; [15]", "result": 0}, {"measurement": "Plant response rating, Bluegrass", "setting": "[8]; [16]", "result": 0}, {"measurement": "Plant response rating, Bluegrass", "setting": "[8]; [17]", "result": 35}, {"measurement": "Plant response rating, Barley, Spring", "setting": "[9]; [14]", "result": 0}, {"measurement": "Plant response rating, Barley, Spring", "setting": "[9]; [15]", "result": 0}, {"measurement": "Plant response rating, Barley, Spring", "setting": "[9]; [16]", "result": 0}, {"measurement": "Plant response rating, Barley, Spring", "setting": "[9]; [17]", "result": 70}, {"measurement": "Plant response rating, Bromegrass, Downy", "setting": "[10]; [14]", "result": 0}, {"measurement": "Plant response rating, Bromegrass, Downy", "setting": "[10]; [15]", "result": 0}, {"measurement": "Plant response rating, Bromegrass, Downy", "setting": "[10]; [16]", "result": 10}, {"measurement": "Plant response rating, Bromegrass, Downy", "setting": "[10]; [17]", "result": 60}, {"measurement": "Plant response rating, Foxtail, Green", "setting": "[11]; [14]", "result": 30}, {"measurement": "Plant response rating, Foxtail, Green", "setting": "[11]; [15]", "result": 100}, {"measurement": "Plant response rating, Foxtail, Green", "setting": "[11]; [16]", "result": 100}, {"measurement": "Plant response rating, Foxtail, Green", "setting": "[11]; [17]", "result": 100}, {"measurement": "Surinam Grass plant response rating", "setting": "[12]; postemergence, 0-100 scale", "result": 70}, {"measurement": "Plant response rating, Surinam Grass", "setting": "[12]; [18]", "result": 80}, {"measurement": "Plant response rating, Surinam Grass", "setting": "[12]; [19]", "result": 100}, {"measurement": "Plant response rating, Surinam Grass", "setting": "[12]; [20]", "result": 100}, {"measurement": "Plant response rating, Surinam Grass", "setting": "[12]; [21]", "result": 100}, {"measurement": "Plant response rating, Surinam Grass", "setting": "[12]; [22]", "result": 100}, {"measurement": "Surinam Grass plant response rating", "setting": "[12]; Preemergence, scale 0 to 100", "result": 95}, {"measurement": "Johnsongrass plant response rating", "setting": "[13]; postemergence, 0-100 scale", "result": 75}, {"measurement": "Plant response rating, Johnsongrass", "setting": "[13]; [18]", "result": 95}, {"measurement": "Plant response rating, Johnsongrass", "setting": "[13]; Postemergence, 31 g ai/ha, scale 0 to 100, 0 no effect, 100 complete control", "result": 98}, {"measurement": "Plant response rating, Johnsongrass", "setting": "[13]; [19]", "result": 100}, {"measurement": "Plant response rating, Johnsongrass", "setting": "[13]; [20]", "result": 95}, {"measurement": "Plant response rating, Johnsongrass", "setting": "[13]; [21]", "result": 100}, {"measurement": "Plant response rating, Johnsongrass", "setting": "[13]; [22]", "result": 100}, {"measurement": "Johnsongrass plant response rating", "setting": "[13]; Preemergence, scale 0 to 100", "result": 65}]}]}
